The results in this text go back to ChEMBL document CHEMBL5512621, “Overview of the development of protein arginine methyltransferase modulators: Achievements and future directions” (Eur J Med Chem, 2024).

The target of test [1] is T1, Protein arginine N-methyltransferase 7 (Homo sapiens, UniProt Q9NVM4).
T1 sequence (Q9NVM4 whole entry): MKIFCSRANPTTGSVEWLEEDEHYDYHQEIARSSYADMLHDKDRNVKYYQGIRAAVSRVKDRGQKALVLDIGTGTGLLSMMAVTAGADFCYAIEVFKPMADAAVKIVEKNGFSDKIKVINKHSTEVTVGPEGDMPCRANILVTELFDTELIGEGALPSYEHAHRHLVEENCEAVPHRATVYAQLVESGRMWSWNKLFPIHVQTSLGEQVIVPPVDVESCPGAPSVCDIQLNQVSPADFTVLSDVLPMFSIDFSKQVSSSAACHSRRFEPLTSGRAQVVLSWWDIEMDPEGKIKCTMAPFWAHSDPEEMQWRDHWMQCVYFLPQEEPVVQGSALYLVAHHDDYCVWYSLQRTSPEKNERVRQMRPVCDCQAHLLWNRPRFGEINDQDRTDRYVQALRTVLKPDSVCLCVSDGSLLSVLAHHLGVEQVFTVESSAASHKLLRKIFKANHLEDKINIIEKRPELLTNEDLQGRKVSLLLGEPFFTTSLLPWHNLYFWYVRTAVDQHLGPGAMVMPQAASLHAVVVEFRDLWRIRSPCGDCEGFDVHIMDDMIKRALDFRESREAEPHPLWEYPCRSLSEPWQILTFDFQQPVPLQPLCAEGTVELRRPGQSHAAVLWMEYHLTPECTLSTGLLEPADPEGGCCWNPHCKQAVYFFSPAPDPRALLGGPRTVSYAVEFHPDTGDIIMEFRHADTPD
Description: Inhibition of PRMT7 (unknown origin).

A further test has as its system PC-3. Description: Inhibition of cell growth in human PC-3 cells. Format: functional, cell-based.
The subject of the next test is JeKo-1. Description: Inhibition of cell growth in human JeKo-1 cells. In kind it is functional, cell-based.
The subject of another test is ES-2. Description: Inhibition of cell growth in human ES2 cells. In kind it is functional, cell-based.
For test [2], the target named is T2, Protein arginine N-methyltransferase 7 (Mus musculus, UniProt Q922X9).
T2 sequence (Q922X9 whole entry): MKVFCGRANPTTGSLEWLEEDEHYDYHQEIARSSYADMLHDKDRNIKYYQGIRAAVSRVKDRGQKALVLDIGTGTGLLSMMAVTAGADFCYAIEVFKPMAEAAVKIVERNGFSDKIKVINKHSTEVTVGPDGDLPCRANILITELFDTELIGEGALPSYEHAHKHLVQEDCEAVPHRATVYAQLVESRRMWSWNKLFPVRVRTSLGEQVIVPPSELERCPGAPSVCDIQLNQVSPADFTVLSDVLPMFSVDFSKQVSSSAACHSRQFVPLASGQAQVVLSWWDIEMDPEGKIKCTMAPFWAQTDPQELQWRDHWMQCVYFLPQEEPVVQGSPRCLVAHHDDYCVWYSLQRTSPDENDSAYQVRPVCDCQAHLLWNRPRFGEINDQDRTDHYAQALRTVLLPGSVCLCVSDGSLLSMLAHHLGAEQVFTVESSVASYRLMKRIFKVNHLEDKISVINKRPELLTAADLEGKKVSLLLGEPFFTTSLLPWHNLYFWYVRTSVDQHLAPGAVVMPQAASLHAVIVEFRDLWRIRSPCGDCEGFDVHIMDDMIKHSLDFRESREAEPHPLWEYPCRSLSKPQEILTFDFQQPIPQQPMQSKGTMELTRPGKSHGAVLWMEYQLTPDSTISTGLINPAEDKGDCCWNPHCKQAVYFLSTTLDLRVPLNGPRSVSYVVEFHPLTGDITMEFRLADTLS
Description: Inhibition of PRMT7 in mouse C2C12 cells assessed as reduction in HSP70 methylation. In kind it is cell-based.

As usually defined, the pIC50 is the negative decadic logarithm of the IC50, by convention in mol/L.

pIC50: −log10 of the molar value. Some results are limits rather than exact numbers.

`COc1cc(-c2ncc(F)c(Nc3ccc4cc(C)cc(N)c4c3)n2)cc(OC)c1OC`: the pIC50 is 5.68 in test [1], more than 5.00 with PC-3, more than 5.00 in the test with JeKo-1 and more than 5.00 in the test on ES-2.

For `CC1=C(C)C(=O)C(C(C)(C)CC(=O)N(CCCCSC[C@H]2O[C@@H](n3cnc4c(N)ncnc43)[C@H](O)[C@@H]2O)Cc2ccc(-c3ccc(Cl)cc3)cc2)=C(C)C1=O`, in test [2], the pIC50 is 5.62.
